Experimental data as given in patent publication US20190040083A1 (priority 2016, published 2019).
Values after ≈ are worked out from the molar mass of the structure shown.

Experiments:
[1] = test system: Acinetobacter baumannii NCTC 13420; assay: microbe, parasite or virus in culture; format: cell-based; settings: NCTC13420
[2] = test system: Acinetobacter baumannii ATCC 19606; assay: microbe, parasite or virus in culture; format: cell-based; settings: ATCC19606
[3] = test system: Enterobacter cloacae NCTC 13406; assay: microbe, parasite or virus in culture; format: cell-based; settings: NCTC13406
[4] = test system: Escherichia coli ATCC 25922; assay: microbe, parasite or virus in culture; format: cell-based; settings: ATCC25922
[5] = test system: Haemophilus influenzae ATCC 49247; assay: microbe, parasite or virus in culture; format: cell-based; settings: ATCC49247
[6] = test system: Klebsiella pneumoniae ATCC 700603; assay: microbe, parasite or virus in culture; format: cell-based; settings: ATCC700603
[7] = test system: Pseudomonas aeruginosa ATCC 27853; assay: microbe, parasite or virus in culture; format: cell-based; settings: ATCC27853
[8] = test system: Staphylococcus aureus ATCC 29213; assay: microbe, parasite or virus in culture; format: cell-based; settings: ATCC29213
[9] = test system: Streptococcus pneumoniae ATCC 49619; assay: microbe, parasite or virus in culture; format: cell-based; settings: ATCC49619
[10] = test system: human hepatic cell line (HepG2 ATCC HB-8065); assay: cells; settings: HepG2, 24 h, read-out: IC50 (μg/mL) HepG2

With `O=C1COc2ccc(N3C(=O)O[C@H]4CN(CCCn5c(=O)ccc6ccccc65)CC[C@H]43)nc2N1` (relative stereo) [Compound 2, rel-1-{3-[(3aR*,7aS*)-2-oxo-1-{3-oxo-2H,3H,4H-pyrido[3,2-b][1,4]oxazin-6-yl}-octahydro-[1,3]oxazolo[5,4-c]pyridin-5-yl]propyl}-1,2-dihydroquinolin-2-one] the MIC [1] was < 1 µg/mL, the MIC [2] was 1 to 10 µg/mL (≈ 2.1 to 21 µM) and the MIC [3] was 10 to 100 µg/mL (≈ 21 to 210 µM). It also gave an MIC [4] of 1 to 10 µg/mL (≈ 2.1 to 21 µM), an MIC [5] of 1 to 10 µg/mL (≈ 2.1 to 21 µM) and an MIC [6] of 10 to 100 µg/mL (≈ 21 to 210 µM). The MIC [7] was 10 to 100 µg/mL (≈ 21 to 210 µM), the MIC [8] was < 1 µg/mL and the MIC [9] was < 1 µg/mL. For the same compound, the IC50 [10] was 10 to 100 µg/mL (≈ 21 to 210 µM).

In the case of `N#Cc1ccc2ccc(=O)n(CCCN3CC[C@@H]4[C@H](C3)OC(=O)N4c3ccc4c(n3)NC(=O)CO4)c2c1` (relative stereo) [Compound 6, rel-1-{3-[(3aR*,7aS*)-2-oxo-1-{3-oxo-2H,3H,4H-pyrido[3,2-b][1,4]oxazin-6-yl}-octahydro-[1,3]oxazolo[5,4-c]pyridin-5-yl]propyl}-2-oxo-1,2-dihydroquinoline-7-carbonitrile], the MIC [1] is reported as < 1 µg/mL, the MIC [2] is reported as 1 to 10 µg/mL (≈ 2 to 20 µM) and the MIC [3] is reported as 1 to 10 µg/mL (≈ 2 to 20 µM). For the same compound, the MIC [4] was < 1 µg/mL, the MIC [5] was 1 to 10 µg/mL (≈ 2 to 20 µM) and the MIC [6] was 10 to 100 µg/mL (≈ 20 to 200 µM). The MIC [7] was 10 to 100 µg/mL (≈ 20 to 200 µM), the MIC [8] was < 1 µg/mL and the MIC [9] was < 1 µg/mL. For the same compound, the IC50 [10] was 10 to 100 µg/mL (≈ 20 to 200 µM).

For `N#Cc1ccc2ccc(=O)n(CCCN3CC[C@@H]4[C@@H](C3)OC(=O)N4c3ccc4c(n3)NC(=O)CO4)c2c1` (relative stereo) [Compound 10, rel-1-{3-[(3aR*,7aR*)-2-oxo-1-{3-oxo-2H,3H,4H-pyrido[3,2-b][1,4]oxazin-6-yl}-octahydro-[1,3]oxazolo[5,4-c]pyridin-5-yl]propyl}-2-oxo-1,2-dihydroquinoline-7-carbonitrile], the MIC [1] was < 1 µg/mL, the MIC [2] was < 1 µg/mL and the MIC [3] was 1 to 10 µg/mL (≈ 2 to 20 µM). For the same compound, the MIC [4] was < 1 µg/mL, the MIC [5] was < 1 µg/mL and the MIC [6] was 10 to 100 µg/mL (≈ 20 to 200 µM). For the same compound, the MIC [7] was 1 to 10 µg/mL (≈ 2 to 20 µM), the MIC [8] was < 1 µg/mL and the MIC [9] was < 1 µg/mL. The IC50 [10] was 10 to 100 µg/mL (≈ 20 to 200 µM).

For `COc1ccc2ccc(=O)n(CCCN3CC[C@H]4[C@@H](C3)OC(=O)N4c3ccc4c(n3)NC(=O)CO4)c2n1` (relative stereo) [Compound 7, rel-1-{3-[(3aR*,7aS*)-2-oxo-1-{3-oxo-2H,3H,4H-pyrido[3,2-b][1,4]oxazin-6-yl}-octahydro-[1,3]oxazolo[5,4-c]pyridin-5-yl]propyl}-7-methoxy-1,2-dihydro-1,8-naphthyridin-2-one], the MIC [1] was < 1 µg/mL, the MIC [2] was < 1 µg/mL and the MIC [3] was 1 to 10 µg/mL (≈ 1.97 to 19.7 µM). For the same compound, the MIC [4] was < 1 µg/mL, the MIC [5] was < 1 µg/mL and the MIC [6] was 10 to 100 µg/mL (≈ 19.7 to 197 µM). The MIC [7] was 10 to 100 µg/mL (≈ 19.7 to 197 µM), the MIC [8] was < 1 µg/mL and the MIC [9] was < 1 µg/mL. It also gave an IC50 [10] of 10 to 100 µg/mL (≈ 19.7 to 197 µM).

`COc1ccc2ccc(=O)n(CCCN3CC[C@@H]4[C@@H](C3)OC(=O)N4c3ccc4c(n3)NC(=O)CO4)c2n1` (relative stereo) [Compound 9, rel-1-{3-[(3aR*,7aR*)-2-oxo-1-{3-oxo-2H,3H,4H-pyrido[3,2-b][1,4]oxazin-6-yl}-octahydro-[1,3]oxazolo[5,4-c]pyridin-5-yl]propyl}-7-methoxy-1,2-dihydro-1,8-naphthyridin-2-one] was tested, and the MIC [1] was < 1 µg/mL, the MIC [2] was < 1 µg/mL and the MIC [3] was 1 to 10 µg/mL (≈ 1.97 to 19.7 µM). For the same compound, the MIC [4] was < 1 µg/mL, the MIC [5] was < 1 µg/mL and the MIC [6] was 10 to 100 µg/mL (≈ 19.7 to 197 µM). For the same compound, the MIC [7] was 1 to 10 µg/mL (≈ 1.97 to 19.7 µM), the MIC [8] was < 1 µg/mL and the MIC [9] was < 1 µg/mL. For the same compound, the IC50 [10] was 10 to 100 µg/mL (≈ 19.7 to 197 µM).
